Source: US8791303B2, “Herbicides” (Syngenta Limited, priority 2009, dated 2014)

Assays:
Lolium perenne (LOLPE) [1] = experiment: Example A glasshouse herbicide test, post-emergence, LOLPE; format: in vivo; conditions: Lolium perenne, post-emergence, 312 h, Rate 250 g/ha, sprayed after 8 days cultivation, evaluated after 13 days, read-out: Post-Emergence Activity LOLPE (100=total damage to plant; 0=no damage to plant)
Experimental: (§1) Seeds of a variety of test species are sown in standard soil in pots. After cultivation for one day (pre-emergence) or after 8 days cultivation (post-emergence) under controlled conditions in a glasshouse (at 24/16° C., day/night; 14 hours light; 65% humidity), the plants are sprayed with an aqueous spray solution derived from the formulation of the technical active ingredient in acetone/water (50:50) solution containing 0.5% Tween 20 (polyoxyethelyene sorbitan monolaurate, CAS RN 9005-64-5).
(§2) The test plants are then grown in a glasshouse under controlled conditions in a glasshouse (at 24/16° C., day/night; 14 hours light; 65% humidity) and watered twice daily. After 13 days for pre and post-emergence, the test is evaluated (100=total damage to plant; 0=no damage to plant).
(§3) Lolium perenne (LOLPE), Alopecurus myosuroides (ALOMY), Echinochloa crus-galli (ECHCG), Avena fatua (AVEFA)

[2] = test system: Alopecurus myosuroides (ALOMY); experiment: Example A glasshouse herbicide test, post-emergence, ALOMY; format: in vivo; conditions: Alopecurus myosuroides, post-emergence, 312 h, Rate 250 g/ha, sprayed after 8 days cultivation, evaluated after 13 days, read-out: Post-Emergence Activity ALOMY (100=total damage to plant; 0=no damage to plant)
Experimental: as §1, §2, §3

[3] = test system: Echinochloa crus-galli (ECHCG); experiment: Example A glasshouse herbicide test, post-emergence, ECHCG; format: in vivo; conditions: Echinochloa crus-galli, post-emergence, 312 h, Rate 250 g/ha, sprayed after 8 days cultivation, evaluated after 13 days, read-out: Post-Emergence Activity ECHCG (100=total damage to plant; 0=no damage to plant)
Experimental: as §1, §2, §3

Avena fatua (AVEFA) [4] = experiment: Example A glasshouse herbicide test, post-emergence, AVEFA; format: in vivo; conditions: Avena fatua, post-emergence, 312 h, Rate 250 g/ha, sprayed after 8 days cultivation, evaluated after 13 days, read-out: Post-Emergence Activity AVEFA (100=total damage to plant; 0=no damage to plant)
Experimental: as §1, §2, §3

Lolium perenne (LOLPE) [5] = experiment: Example A glasshouse herbicide test, pre-emergence, LOLPE; format: in vivo; conditions: Lolium perenne, pre-emergence, 312 h, Rate 250 g/ha, sprayed after cultivation for one day, evaluated after 13 days, read-out: Pre-Emergence Activity LOLPE (100=total damage to plant; 0=no damage to plant)
Experimental: as §1, §2, §3

[6] = test system: Alopecurus myosuroides (ALOMY); experiment: Example A glasshouse herbicide test, pre-emergence, ALOMY; format: in vivo; conditions: Alopecurus myosuroides, pre-emergence, 312 h, Rate 250 g/ha, sprayed after cultivation for one day, evaluated after 13 days, read-out: Pre-Emergence Activity ALOMY (100=total damage to plant; 0=no damage to plant)
Experimental: as §1, §2, §3

[7] = test system: Echinochloa crus-galli (ECHCG); experiment: Example A glasshouse herbicide test, pre-emergence, ECHCG; format: in vivo; conditions: Echinochloa crus-galli, pre-emergence, 312 h, Rate 250 g/ha, sprayed after cultivation for one day, evaluated after 13 days, read-out: Pre-Emergence Activity ECHCG (100=total damage to plant; 0=no damage to plant)
Experimental: as §1, §2, §3

Avena fatua (AVEFA) [8] = experiment: Example A glasshouse herbicide test, pre-emergence, AVEFA; format: in vivo; conditions: Avena fatua, pre-emergence, 312 h, Rate 250 g/ha, sprayed after cultivation for one day, evaluated after 13 days, read-out: Pre-Emergence Activity AVEFA (100=total damage to plant; 0=no damage to plant)
Experimental: as §1, §2, §3

[9] = test system: Winter Wheat variety 'Hereward'; experiment: Example B crop damage test, post-emergence, unsafened wheat; format: in vivo; conditions: Rate 250 g/ha; post-emergence spray after 8 days cultivation; no safener; evaluated after 13 days
Experimental: Seeds of the Winter Wheat variety ‘Hereward’ were sown in standard soil in pots. After 8 days cultivation under controlled conditions in a glasshouse (at 24/16° C., day/night; 14 hours light; 65% humidity), the plants were sprayed post-emergence with an aqueous spray solution derived from the formulation of the technical active ingredient in acetone/water (50:50) solution containing 0.5% Tween 20 (polyoxyethelyene sorbitan monolaurate, CAS RN 9005-64-5).
(§4) The test plants were then grown in a glasshouse under controlled conditions in a glasshouse (at 24/16° C., day/night; 14 hours light; 65% humidity) and watered twice daily. After 13 days for pre and post-emergence, the test was evaluated (100=total damage to plant; 0=no damage to plant).

[10] = test system: Winter Wheat variety 'Hereward'; experiment: Example B crop damage test, post-emergence, wheat seed treated with safener cloquintocet mexyl; format: in vivo; conditions: Rate 250 g/ha; post-emergence spray 8 days after sowing; seed treated with cloquintocet mexyl 0.5 g/kg dry seed; evaluated after 13 days
Experimental: Seeds of the Winter Wheat variety ‘Hereward’ were seed treated with a wettable powder formulation of the cereal herbicide safener, cloquintocet mexyl, at a rate of 0.5 grams per kilogram of dry seed prior to the initiation of glasshouse testing. One seed was sown per 1.5 inch plastic pot into a sandy loam soil at a depth of 1 cm, 8 days prior to application of the test compounds and was watered and grown under controlled conditions in a glasshouse (at 24/16° C., day/night; 14 hours light; 65% humidity). The plants were sprayed post-emergence with an aqueous spray solution derived from the formulation of the technical active ingredient in acetone/water (50:50) solution containing 0.5% Tween 20 (polyoxyethelyene sorbitan monolaurate, CAS RN 9005-64-5).
as §4

| melting point [°C] | Compound | pest or weed control at 250 g/ha (Lolium perenne (LOLPE) [1]) [%] | pest or weed control at 250 g/ha [2] [%] | pest or weed control at 250 g/ha [3] [%] | pest or weed control at 250 g/ha (Avena fatua (AVEFA) [4]) [%] | pest or weed control at 250 g/ha (Lolium perenne (LOLPE) [5]) [%] | pest or weed control at 250 g/ha [6] [%] | pest or weed control at 250 g/ha [7] [%] | pest or weed control at 250 g/ha (Avena fatua (AVEFA) [8]) [%] | Winter Wheat (Hereward) damage (100=total damage to plant; 0=no damage to plant) [9] | Winter Wheat (Hereward) + cloquintocet mexyl damage (100=total damage to plant; 0=no damage to plant) [10] |
| --- | --- | --- | --- | --- | --- | --- | --- | --- | --- | --- | --- |
| 183.1 to 183.2 | Cc1cc(C)c(C2C(=O)CC(Cc3ccc(F)cc3)C2=O)c(C)c1 (stereo not drawn) [Compound A12] | – | – | – | – | – | – | – | – | – | – |
| 192 to 194.8 | Cc1cc(C)c(C2C(=O)CC(Cc3cccc(Oc4ccccc4)c3)C2=O)c(C)c1 (stereo not drawn) [Compound A13] | 20 | 30 | 20 | 30 | 40 | 10 | 20 | 0 | – | – |
| 225 to 232 | Cc1cc(C)c(C2C(=O)CC(Cc3ccc(-c4csnn4)cc3)C2=O)c(C)c1 (stereo not drawn) [Compound A16] | 30 | 20 | 50 | 50 | 70 | 10 | 80 | 30 | – | – |
| – | Cc1cc(C)c(C2C(=O)C/C(=C\C3CCCC(C)C3)C2=O)c(C)c1 (stereo not drawn) [Compound A30] | 60 | 60 | 80 | 70 | 100 | 80 | 100 | 70 | 50 | 0 |
| – | Cc1cc(C)c(C2C(=O)C/C(=C\C3CCCC4CCCCC34)C2=O)c(C)c1 (stereo not drawn) [Compound A31] | 70 | 20 | 80 | 20 | 90 | 40 | 90 | 20 | 20 | 0 |
| – | Cc1cc(C)c(C2C(=O)CC(CC3CCCC(C)C3)C2=O)c(C)c1 (stereo not drawn) [Compound A32] | 100 | 70 | 100 | 90 | 90 | 70 | 100 | 50 | 30 | 0 |
| – | Cc1cc(C)c(C2C(=O)CC(CC3CCC(C)CC3)C2=O)c(C)c1 (stereo not drawn) [Compound A33] | 100 | 30 | 60 | 70 | 0 | 30 | 100 | 50 | 40 | 0 |
| – | Cc1cc(C)c(C2C(=O)CC(CC3CC(C)CCC3C(C)C)C2=O)c(C)c1 (stereo not drawn) [Compound A34] | 30 | 20 | 10 | 10 | 0 | 10 | 60 | 0 | 20 | 10 |
| – | Cc1cc(C)c(C2C(=O)CC(CC3CCCCCC3)C2=O)c(C)c1 (stereo not drawn) [Compound A35] | 80 | 50 | 80 | 20 | 30 | 50 | 100 | 50 | 20 | 0 |
| – | Cc1cc(C)c(C2C(=O)CC(CC3CCCC4CCCCC43)C2=O)c(C)c1 (stereo not drawn) [Compound A36] | 70 | 40 | 70 | 90 | 10 | 70 | 70 | 50 | 20 | 0 |
| – | COC1CCC(CC2CC(=O)C(c3c(C)cc(C)cc3C)C2=O)CC1 (stereo not drawn) [Compound A38, 4-(4-Methoxy-cyclohexylmethyl)-2-(2,4,6-trimethyl-phenyl)-cyclopentane-1,3-dione] | 100 | 100 | 100 | 100 | 100 | 90 | 100 | 60 | 70 | 50 |
| – | Cc1cc(C)c(C2=C(OC(=O)C(C)(C)C)C/C(=C\C3CCCCC3)C2=O)c(C)c1 [Compound B1] | 70 | 50 | 30 | 10 | 80 | 70 | 100 | 20 | 10 | 0 |
| – | Cc1cc(C)c(C2=C(OC(=O)C(C)(C)C)CC(CC3CCCCC3)C2=O)c(C)c1 (stereo not drawn) [Compound B2] | 90 | 80 | 60 | 80 | 100 | 30 | 100 | 0 | 70 | 0 |
| – | Cc1cc(C)c(C2=C(OC(=O)C(C)(C)C)C(CC3CCC(=O)CC3)CC2=O)c(C)c1 (stereo not drawn) [Compound B3] | 90 | 70 | 90 | 90 | 90 | 70 | 50 | 50 | 40 | 30 |
